Values after ≈ are worked out from the molar mass of the structure shown. Like-named read-outs stand apart in the source and are kept apart here. Some results are limits rather than exact numbers.

One series in a line: Solubility at pH 6.8. Format: physicochemical. The method, boiled down: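 Solubility was measured at pH 6.8 following the cited Zhou et al. (2007) procedure.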
The next series addresses T1, PI3K alpha (Homo sapiens, UniProt P42336).
T1 construct: p85(iSH2) fusion partner (see partner chain) (N); His tag (C); made in house; host or cells: baculovirus; Tn5 (Trichoplusia ni) or TiniPro insect cells
Put plainly: PI3K alpha kinase assay (Kinase-Glo luminescence). Format: biochemical. The method, boiled down:
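Luminescent ATP-depletion assay (Kinase-Glo) with 10 nM PI3Kα and 10 μg/mL phosphatidylinositol as lipid substrate at 1 μM ATP. Incubation lasts 60 min at room temperature.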

In another series the target is T2, PI3K delta (Homo sapiens, UniProt O00329).
T2 construct: for the full-length p110-d subunit are generated and fused by overlapping PCR; p85(iSH2) fusion partner (see partner chain) (N); His tag (C); made in house; host or cells: baculovirus; Tn5 (Trichoplusia ni) or TiniPro insect cells
T2 sequence (O00329 with tags, fused parts or gaps limits assumed): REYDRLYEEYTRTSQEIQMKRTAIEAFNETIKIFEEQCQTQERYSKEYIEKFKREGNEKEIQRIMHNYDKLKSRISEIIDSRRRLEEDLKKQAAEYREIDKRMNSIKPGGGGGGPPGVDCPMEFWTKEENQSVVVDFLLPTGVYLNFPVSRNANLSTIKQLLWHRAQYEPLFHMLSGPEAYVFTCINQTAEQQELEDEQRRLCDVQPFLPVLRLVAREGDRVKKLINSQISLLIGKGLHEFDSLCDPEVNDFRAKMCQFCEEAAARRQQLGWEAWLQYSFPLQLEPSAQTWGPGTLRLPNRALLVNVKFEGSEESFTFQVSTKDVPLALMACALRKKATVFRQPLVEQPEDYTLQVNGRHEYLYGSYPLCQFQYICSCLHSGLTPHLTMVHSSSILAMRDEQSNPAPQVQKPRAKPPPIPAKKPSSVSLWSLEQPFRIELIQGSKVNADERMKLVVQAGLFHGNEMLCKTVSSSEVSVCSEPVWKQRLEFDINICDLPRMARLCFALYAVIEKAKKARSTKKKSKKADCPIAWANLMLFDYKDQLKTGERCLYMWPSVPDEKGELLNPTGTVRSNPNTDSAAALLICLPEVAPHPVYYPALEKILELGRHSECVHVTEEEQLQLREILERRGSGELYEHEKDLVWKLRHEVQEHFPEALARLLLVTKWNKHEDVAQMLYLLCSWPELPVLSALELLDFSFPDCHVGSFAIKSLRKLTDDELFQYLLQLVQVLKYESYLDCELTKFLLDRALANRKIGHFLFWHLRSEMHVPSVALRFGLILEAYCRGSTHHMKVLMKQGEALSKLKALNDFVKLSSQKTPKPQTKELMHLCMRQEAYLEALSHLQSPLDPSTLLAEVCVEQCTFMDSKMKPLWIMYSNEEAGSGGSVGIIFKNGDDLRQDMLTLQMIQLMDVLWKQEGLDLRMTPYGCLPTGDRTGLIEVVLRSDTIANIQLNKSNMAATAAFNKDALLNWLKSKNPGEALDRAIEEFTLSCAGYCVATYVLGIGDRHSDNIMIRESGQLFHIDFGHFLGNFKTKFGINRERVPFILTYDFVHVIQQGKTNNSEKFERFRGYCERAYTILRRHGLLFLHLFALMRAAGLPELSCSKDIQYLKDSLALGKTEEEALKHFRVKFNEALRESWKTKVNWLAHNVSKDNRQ
Put plainly: PI3K delta kinase assay (Kinase-Glo luminescence). Format: biochemical. The method, boiled down:
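Inhibition is derived from luminescent detection of unconsumed ATP. The reaction runs for one hour at ambient temperature and contains the δ isoform fusion protein, phosphatidylinositol substrate and low (1 μM) ATP. Eight compound concentrations are tested in single, and a 4-parameter logistic model is used to calculate IC50.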
(In general: Kinase-Glo reads ATP consumption through a luciferase reaction.)

In series [1] the test system is PKB Ser473 phosphorylation in Rat1-myr-HA-p110 alpha cells. Put plainly: Reverse protein array assay, PKB Ser473 phosphorylation in Rat1-myr-p110 alpha cells. Format: cell-based. As to conditions: 0.5 h, pAkt Ser473, 30 minutes compound incubation, read-out: p-PKB IC50. The method, boiled down:
(§1)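 Cells: Rat1-myr-HA-p110 alpha/beta/delta, seeded ≥20 h. Lysis on ice 10 min; reverse-phase protein array, 4 lysate dilutions; fluorescence read, relative intensity.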

The subject of series [2] is PKB Ser473 phosphorylation in Rat1-myr-HA-p110 beta cells. Put plainly: Reverse protein array assay, PKB Ser473 phosphorylation in Rat1-myr-p110 beta cells. Format: cell-based. As to conditions: 0.5 h, pAkt Ser473, 30 minutes incubation, read-out: p-PKB IC50. The method, boiled down: as §1
The mark [3] stands for this setting: pH 6.8, aqueous buffer, thermodynamic from solid, read-out: solubility.

T1 sequence (P42336 with tags, fused parts or gaps limits assumed): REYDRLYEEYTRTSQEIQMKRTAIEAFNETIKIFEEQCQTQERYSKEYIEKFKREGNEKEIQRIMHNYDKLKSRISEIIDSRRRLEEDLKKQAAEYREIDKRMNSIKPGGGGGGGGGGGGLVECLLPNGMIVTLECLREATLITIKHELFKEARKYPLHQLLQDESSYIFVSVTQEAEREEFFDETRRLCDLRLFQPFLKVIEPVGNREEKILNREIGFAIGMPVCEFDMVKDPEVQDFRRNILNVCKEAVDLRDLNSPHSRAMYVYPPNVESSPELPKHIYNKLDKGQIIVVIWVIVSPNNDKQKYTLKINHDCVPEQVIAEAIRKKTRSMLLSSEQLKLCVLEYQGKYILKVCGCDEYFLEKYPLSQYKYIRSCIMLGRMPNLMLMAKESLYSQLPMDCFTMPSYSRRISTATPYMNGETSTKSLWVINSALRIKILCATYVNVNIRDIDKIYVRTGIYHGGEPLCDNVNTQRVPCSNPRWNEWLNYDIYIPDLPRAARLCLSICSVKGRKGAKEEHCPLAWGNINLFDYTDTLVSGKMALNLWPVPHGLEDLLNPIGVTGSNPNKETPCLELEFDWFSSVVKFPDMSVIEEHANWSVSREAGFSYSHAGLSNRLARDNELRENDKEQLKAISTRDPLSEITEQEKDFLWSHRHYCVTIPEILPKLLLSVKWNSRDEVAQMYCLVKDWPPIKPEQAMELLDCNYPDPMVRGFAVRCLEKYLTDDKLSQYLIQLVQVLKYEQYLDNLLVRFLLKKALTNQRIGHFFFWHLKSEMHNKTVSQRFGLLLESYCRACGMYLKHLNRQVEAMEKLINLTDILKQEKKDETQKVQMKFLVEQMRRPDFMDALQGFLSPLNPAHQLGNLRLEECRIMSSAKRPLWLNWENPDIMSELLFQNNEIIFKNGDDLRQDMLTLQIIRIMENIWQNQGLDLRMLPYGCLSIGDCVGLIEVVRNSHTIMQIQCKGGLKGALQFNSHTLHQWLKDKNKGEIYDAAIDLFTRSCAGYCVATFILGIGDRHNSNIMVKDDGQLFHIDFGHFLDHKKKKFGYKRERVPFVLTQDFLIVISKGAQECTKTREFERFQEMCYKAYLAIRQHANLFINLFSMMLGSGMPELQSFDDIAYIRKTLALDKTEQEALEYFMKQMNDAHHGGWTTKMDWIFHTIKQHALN

Turning to `Cc1ncc(-c2ccc3ncc4c(c3c2)n(-c2cn(C)nc2C)c(=O)n4C)cc1N(C)C` [Example 164, 8-(5-Dimethylamino-6-methyl-pyridin-3-yl)-1-(1,3-dimethyl-1H-pyrazol-4-yl)-3-methyl-1,3-dihydro-imidazo[4,5-c]quinolin-2-one], the solubility (in general, the dissolved amount per volume that the medium holds) in “Solubility at pH 6.8” (setting [3]) stood at 400 µg/mL (≈ 936 µM). For the same compound, the IC50 (usually the concentration that gives 50% inhibition) is 5 nM at PI3K alpha, 4 nM on PI3K delta, below 5 nM in series [1] and below 5 nM in series [2].
On to `Cc1nn(C)cc1-n1c(=O)n(C)c2cnc3ccc(-c4ccccc4)cc3c21` [Example 37.1, 1-(1,3-Dimethyl-1H-pyrazol-4-yl)-3-methyl-8-phenyl-1,3-dihydro-imidazo[4,5-c]quinolin-2-one], for which the solubility in the series “Solubility at pH 6.8” (setting [3]) was found to be 3 µg/mL (≈ 8.12 µM). The IC50 at PI3K alpha amounted to 34 nM; at PI3K delta, 449 nM; in series [1] it was 98 nM; in series [2], 135 nM.
In the series “Solubility at pH 6.8” (pH 6.8), `CCNc1cc(-c2ccc3ncc4c(c3c2)n(-c2c(C)nn(C)c2C)c(=O)n4C)cnc1F` [Example 154.1, 8-(5-Ethylamino-6-fluoro-pyridin-3-yl)-3-methyl-1-(1,3,5-trimethyl-1H-pyrazol-4-yl)-1,3-dihydro-imidazo[4,5-c]quinolin-2-one] returned a solubility of 2 µg/mL (≈ 4.49 µM). The IC50 at PI3K alpha was found to be 157 nM; at PI3K delta, 37 nM; in series [1], 102 nM; in series [2], 104 nM.
Consider `CNc1ncc(-c2ccc3ncc4c(c3c2)n(-c2cn(C)nc2C)c(=O)n4C)cc1F` [Example 141.2, 1-(1,3-Dimethyl-1H-pyrazol-4-yl)-8-(5-fluoro-6-methylamino-pyridin-3-yl)-3-methyl-1,3-dihydro-imidazo[4,5-c]quinolin-2-one], for which, in “Solubility at pH 6.8” (pH 6.8), the solubility was 2 µg/mL (≈ 4.79 µM). The IC50 at PI3K alpha is 14 nM; on PI3K delta it was 98 nM; in series [1], below 5 nM; in series [2], below 5 nM.
As for `[2H]C([2H])([2H])OCc1ncc(-c2ccc3ncc4c(c3c2)n(-c2cn(C)nc2Cl)c(=O)n4C)cc1OC` [Example 199, 1-(3-Chloro-1-methyl-1H-pyrazol-4-yl)-8-(5-methoxy-6-trideuteromethoxymethyl-pyridin-3-yl)-3-methyl-1,3-dihydro-imidazo[4,5-c]quinolin-2-one], the solubility in “Solubility at pH 6.8” (setting [3]) is 8 µg/mL (≈ 17.1 µM). Moreover, the IC50 on PI3K alpha stood at 15 nM; on PI3K delta, 5 nM; in series [1], 23 nM; in series [2] it was 26 nM.
With `COc1ccc(-c2ccc3ncc4c(c3c2)n(-c2ccnn2C)c(=O)n4C)cc1OC` [Example 1.3, 8-(3,4-Dimethoxy-phenyl)-3-methyl-1-(2-methyl-2H-pyrazol-3-yl)-1,3-dihydro-imidazo[4,5-c]quinolin-2-one], the solubility in “Solubility at pH 6.8” (pH 6.8) was found to be 2 µg/mL (≈ 4.81 µM). In addition, the 50% inhibitory concentration (IC50) at PI3K alpha was found to be 14 nM; on PI3K delta, 12 nM; in series [1] it was 46 nM; in series [2], 96 nM.
In the series “Solubility at pH 6.8” (pH 6.8), `CCOc1ccc(-c2ccc3ncc4c(c3c2)n(-c2cn(C)nc2C)c(=O)n4C)cc1OC` [Example 29.3, 1-(1,3-Dimethyl-1H-pyrazol-4-yl)-8-(4-ethoxy-3-methoxy-phenyl)-3-methyl-1,3-dihydro-imidazo[4,5-c]quinolin-2-one] gave a solubility of 2 µg/mL (≈ 4.51 µM). For the same compound, the IC50 on PI3K alpha was found to be 11 nM; at PI3K delta, 40 nM; in series [1] it was 8 nM; in series [2], 15 nM.
With `CCNc1ncc(-c2ccc3ncc4c(c3c2)n(-c2cn(C)nc2C)c(=O)n4C)cc1COCC` [Example 167, 1-(1,3-Dimethyl-1H-pyrazol-4-yl)-8-(5-ethoxymethyl-6-ethylamino-pyridin-3-yl)-3-methyl-1,3-dihydro-imidazo[4,5-c]quinolin-2-one], the solubility in “Solubility at pH 6.8” (setting [3]) amounted to 4 µg/mL (≈ 8.48 µM). Also, the IC50 was 33 nM at PI3K alpha, 25 nM on PI3K delta, 35 nM in series [1] and 72 nM in series [2].
Turning to `CCOc1cc(-c2ccc3ncc4c(c3c2)n(-c2cn(C)nc2C)c(=O)n4C)ccc1OC` [Example 28.3, 1-(1,3-Dimethyl-1H-pyrazo1-4-yl)-8-(3-ethoxy-4-methoxy-phenyl)-3-methyl-1,3-dihydro-imidazo[4,5-c]quinolin-2-one], the solubility in “Solubility at pH 6.8” (pH 6.8) turned out to be 2 µg/mL (≈ 4.51 µM). In addition, the half-maximal inhibitory concentration (IC50) on PI3K alpha came to 13 nM; on PI3K delta, 42 nM; in series [1] it was 9 nM; in series [2], 15 nM.
As for `CNc1ncc(-c2ccc3ncc4c(c3c2)n(-c2c(C)nn(C)c2C)c(=O)n4C)cc1Cl` [Example 146.4, 8-(5-Chloro-6-methylamino-pyridin-3-yl)-3-methyl-1-(1,3,5-trimethyl-1H-pyrazol-4-yl)-1,3-dihydro-imidazo[4,5-c]quinolin-2-one], the solubility in “Solubility at pH 6.8” (setting [3]) worked out at 75 µg/mL (≈ 167 µM). In addition, the IC50 on PI3K alpha was 35 nM; at PI3K delta it was 19 nM; in series [1], 70 nM; in series [2] it was 127 nM.
On the same counts, the results for `COc1ncc(-c2ccc3ncc4c(c3c2)n(-c2cn(C)nc2C)c(=O)n4C)cc1NC(C)=O` [Example 64, N-{5-[1-(1,3-Dimethyl-1H-pyrazol-4-yl)-3-methyl-2-oxo-2,3-dihydro-1H-imidazo[4,5-c]quinolin-8-yl]-2-methoxy-pyridin-3-yl}-acetamide] are 3 µg/mL (≈ 6.56 µM), 87 nM, 51 nM, 12 nM and 24 nM.
Consider `Cc1nn(C)cc1-n1c(=O)n(C)c2cnc3ccc(-c4cccc(S(C)(=O)=O)c4)cc3c21` [Example 40, 1-(1,3-Dimethyl-1H-pyrazol-4-yl)-8-(3-methanesulfonyl-phenyl)-3-methyl-1,3-dihydro-imidazo[4,5-c]quinolin-2-one], for which the solubility in the series “Solubility at pH 6.8” (pH 6.8) stood at 2 µg/mL (≈ 4.47 µM). The IC50 worked out at 20 nM on PI3K alpha, 23 nM on PI3K delta, 77 nM in series [1] and 65 nM in series [2].
On to `Cc1nn(C)cc1-n1c(=O)n(C)c2cnc3ccc(-c4cncc(N(C)S(C)(=O)=O)c4)cc3c21` [Example 121, N-{5-[1-(1,3-Dimethyl-1H-pyrazol-4-yl)-3-methyl-2-oxo-2,3-dihydro-1H-imidazo[4,5-c]quinolin-8-yl]-pyridin-3-yl}-N-methyl-methanesulfonamide], for which the solubility in the series “Solubility at pH 6.8” (setting [3]) stood at 47 µg/mL (≈ 98.4 µM). The 50% inhibitory concentration (IC50) on PI3K alpha was determined as 19 nM; on PI3K delta, 18 nM; in series [1], 254 nM; in series [2], 444 nM.
As for `COc1cc(-c2ccc3ncc4c(c3c2)n(-c2cn(C)nc2C)c(=O)n4C)cnc1CO` [Example 193, 1-(1,3-Dimethyl-1H-pyrazol-4-yl)-8-(6-hydroxymethyl-5-methoxy-pyridin-3-yl)-3-methyl-1,3-dihydro-imidazo[4,5-c]quinolin-2-one], the solubility in “Solubility at pH 6.8” (setting [3]) was 150 µg/mL (≈ 348 µM). Moreover, the concentration for half-maximal inhibition (IC50) is 19 nM at PI3K alpha, 17 nM at PI3K delta, 8 nM in series [1] and 160 nM in series [2].
For `CNc1cc(-c2ccc3ncc4c(c3c2)n(-c2cn(C)nc2C)c(=O)n4C)cnc1F` [Example 150.2, 1-(1,3-Dimethyl-1H-pyrazol-4-yl)-8-(6-fluoro-5-methylamino-pyridin-3-yl)-3-methyl-1,3-dihydro-imidazo[4,5-c]quinolin-2-one], in that order: 4 µg/mL (≈ 9.58 µM), 9 nM, 7 nM, 7 nM and 10 nM.
On the same counts, the results for `COCc1ncc(-c2ccc3ncc4c(c3c2)n(-c2cn(C(C)C)nc2C)c(=O)n4C)cc1OC` [Example 195.2, 1-(1-Isopropyl-3-methyl-1H-pyrazol-4-yl)-8-(5-methoxy-6-methoxymethyl-pyridin-3-yl)-3-methyl-1,3-dihydro-imidazo[4,5-c]quinolin-2-one] are above 473 µg/mL, 37 nM, 35 nM, 48 nM and 189 nM.
On the same counts, the results for `COCc1ncc(-c2ccc3ncc4c(c3c2)n(-c2cn(C)nc2C)c(=O)n4C)cc1OC` [Example 195.1, 1-(1,3-Dimethyl-1H-pyrazol-4-yl)-8-(5-methoxy-6-methoxymethyl-pyridin-3-yl)-3-methyl-1,3-dihydro-imidazo[4,5-c]quinolin-2-one] are 439 µg/mL (≈ 988 µM), 18 nM, 14 nM, 63 nM and 114 nM.

Source of the values: patent US20140005163A1 (NOVARTIS AG, priority 2010, published 2014).
